One experiment concerns the target T1, D2 receptors (Rattus norvegicus, UniProt P61169).
T1 construct: (g) D2 receptors, [^3H]spiperone, rat striatum; from tissue; host or cells: rat striatum
Kind of experiment: Radioligand displacement, D2 receptors, [3H]spiperone. The format is binding. The note with it: rat striatum, read-out: Ki ± E.E. D2.

The target of the next experiment is T2, 5-HT4 receptors (Rattus norvegicus, UniProt Q62758).
T2 construct: (d) 5-HT4 receptors, [^3H]GR 113808, rat striatum; from tissue; host or cells: rat striatum
In words: Radioligand displacement, 5-HT4 receptors, [3H]GR 113808. The format is binding. The note with it: [3H]GR 113808, rat striatum; read-out: Ki ± E.E. 5-HT4.

For a further experiment, the target named is T3, 5-HT3 receptors (Rattus norvegicus, UniProt P35563).
T3 construct: (c) 5-HT3 receptors, [^3H]LY 278584, rat cerebral cortex; from tissue; host or cells: rat cerebral cortex
T3 sequence (P35563 24-483): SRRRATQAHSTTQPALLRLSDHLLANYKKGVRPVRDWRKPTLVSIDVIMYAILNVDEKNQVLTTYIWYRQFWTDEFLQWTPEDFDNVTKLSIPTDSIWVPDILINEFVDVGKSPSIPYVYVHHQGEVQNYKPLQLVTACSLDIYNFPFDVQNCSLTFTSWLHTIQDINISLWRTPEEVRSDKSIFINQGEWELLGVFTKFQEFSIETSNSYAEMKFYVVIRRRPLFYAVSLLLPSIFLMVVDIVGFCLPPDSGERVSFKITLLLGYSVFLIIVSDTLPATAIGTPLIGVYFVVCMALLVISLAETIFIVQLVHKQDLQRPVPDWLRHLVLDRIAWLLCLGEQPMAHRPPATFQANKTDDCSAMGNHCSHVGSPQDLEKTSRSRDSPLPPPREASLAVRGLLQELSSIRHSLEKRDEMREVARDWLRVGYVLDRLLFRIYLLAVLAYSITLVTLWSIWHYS
In words: Radioligand displacement, 5-HT3 receptors, [3H]LY 278584. It counts as binding. The following applies: [3H]LY 278584, rat cerebral cortex; read-out: Ki ± E.E. 5-HT3.

The next experiment deals with α1 receptors. Kind of experiment: Radioligand displacement, α1 receptors, [3H]prazosin. It counts as binding. The following applies: rat cerebral cortex, read-out: Ki ± E.E. α1.
Experiment [1] concerns the target T4, 5-HT1A (Rattus norvegicus, UniProt P19327).
T4 sequence (P19327 1-422): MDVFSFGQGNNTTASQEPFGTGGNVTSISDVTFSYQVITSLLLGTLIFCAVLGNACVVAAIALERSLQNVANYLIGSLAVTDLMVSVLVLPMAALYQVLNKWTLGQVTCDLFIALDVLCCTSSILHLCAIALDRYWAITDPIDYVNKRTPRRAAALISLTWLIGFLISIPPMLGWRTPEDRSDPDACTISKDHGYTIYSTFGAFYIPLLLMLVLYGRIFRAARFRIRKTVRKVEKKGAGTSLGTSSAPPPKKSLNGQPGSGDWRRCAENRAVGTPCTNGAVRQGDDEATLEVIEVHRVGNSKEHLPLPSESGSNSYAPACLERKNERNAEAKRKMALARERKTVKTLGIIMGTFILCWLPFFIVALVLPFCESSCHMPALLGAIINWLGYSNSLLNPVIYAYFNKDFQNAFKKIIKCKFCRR
Kind of experiment: Radioligand displacement, 5-HT1A receptors, [3H]-8-OH-DPAT. More on the design: (a) 5-HT1A receptors, [^3H]-8-OH-DPAT, rat cerebral cortex; from tissue; host or cells: rat cerebral cortex. It counts as binding. The note with it: rat cerebral cortex, read-out: Ki ± E.E. 5-HT1A.

A further experiment concerns the target T5, 5-HT2A receptors (Rattus norvegicus, UniProt P14842).
T5 construct: (b) 5-HT2A receptors, [^3H]ketanserin, rat cerebral cortex; from tissue; host or cells: rat cerebral cortex
Kind of experiment: Radioligand displacement, 5-HT2A receptors, [3H]ketanserin. It counts as binding. The note with it: rat cerebral cortex, read-out: Ki ± E.E. 5-HT2A.

For another experiment, the target named is T6, 5-HT7 receptors (Rattus norvegicus, UniProt P32305).
T6 construct: (e) 5-HT7 receptors, [^3H]-5-CT, rat hypothalamus; from tissue; host or cells: rat hypothalamus
In words: Radioligand displacement, 5-HT7 receptors, [3H]-5-CT. It counts as binding. The note with it: [3H]-5-CT, rat hypothalamus; read-out: Ki ± E.E. 5-HT7.

The next experiment concerns the target T7, 5-human HT1A receptor (Homo sapiens, UniProt P08908).
T7 construct: expressed in transfected cells; host or cells: HeLa cells
T7 sequence (P08908 1-422): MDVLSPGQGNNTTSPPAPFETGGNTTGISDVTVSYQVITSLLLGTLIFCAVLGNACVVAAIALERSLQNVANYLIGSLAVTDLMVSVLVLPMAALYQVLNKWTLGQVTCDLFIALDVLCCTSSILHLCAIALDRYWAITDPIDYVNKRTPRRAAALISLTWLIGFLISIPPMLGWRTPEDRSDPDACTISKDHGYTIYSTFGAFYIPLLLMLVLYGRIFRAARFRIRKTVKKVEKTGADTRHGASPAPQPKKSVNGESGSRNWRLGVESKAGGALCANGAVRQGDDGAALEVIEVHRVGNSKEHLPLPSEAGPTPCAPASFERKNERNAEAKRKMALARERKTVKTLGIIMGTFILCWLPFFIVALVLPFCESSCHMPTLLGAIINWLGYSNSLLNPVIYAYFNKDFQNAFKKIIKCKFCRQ
Kind of experiment: Test on adenylate cyclase in He-La cells (inhibition of forskolin stimulation). The format is cell-based. The following applies: for EC50: inhibition of forskolin-stimulated adenylate cyclase, He-La cells transfected with 5-HT1A, read-out: CE50 (the source's name); for % Maximum inhibition: inhibition of the activation induced by forskolin. The source says:
The functional character of the new compounds was initially determined by studying their effect on adenylate cyclase in He—La cells transfected with the […], measuring their inhibiting effect on the stimulation of the enzyme induced by forskolin (Table 3 below).

Experiment [2] deals with neurons of the hippocampal area CA1. In words: Hyperpolarization of neurons of the hippocampal area CA1. It counts as cell-based. The following applies: dose-effect curves.
Experiment [3] addresses T4, 5-HT1A. In words: [35S]-GTPγS fixation test to coronal sections of rat brain. It counts as biochemical. More on the design: fixation test of [^35S]-GTPγS to coronal sections of rat brain; from tissue; host or cells: coronal sections of rat brain. The following applies: 10 μM. As to the method:
The in vitro agonist character of the new compounds was also evaluated in some cases by the fixation test of [^35S]-GTPγS to coronal sections of rat brain.

T6 sequence (P32305 whole entry): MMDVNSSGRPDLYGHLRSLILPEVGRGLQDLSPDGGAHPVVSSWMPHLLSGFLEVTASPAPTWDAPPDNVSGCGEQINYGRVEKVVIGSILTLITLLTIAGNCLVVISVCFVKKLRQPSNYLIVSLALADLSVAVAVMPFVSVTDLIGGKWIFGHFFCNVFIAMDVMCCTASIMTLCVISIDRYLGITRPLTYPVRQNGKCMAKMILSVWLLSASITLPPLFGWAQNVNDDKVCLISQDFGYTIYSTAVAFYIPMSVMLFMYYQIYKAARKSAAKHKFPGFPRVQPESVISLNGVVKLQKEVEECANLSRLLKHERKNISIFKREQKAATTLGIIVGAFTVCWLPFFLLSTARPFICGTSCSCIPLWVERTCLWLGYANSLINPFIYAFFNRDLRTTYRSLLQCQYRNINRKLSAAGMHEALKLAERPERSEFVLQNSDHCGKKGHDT
T1 sequence (P61169 whole entry): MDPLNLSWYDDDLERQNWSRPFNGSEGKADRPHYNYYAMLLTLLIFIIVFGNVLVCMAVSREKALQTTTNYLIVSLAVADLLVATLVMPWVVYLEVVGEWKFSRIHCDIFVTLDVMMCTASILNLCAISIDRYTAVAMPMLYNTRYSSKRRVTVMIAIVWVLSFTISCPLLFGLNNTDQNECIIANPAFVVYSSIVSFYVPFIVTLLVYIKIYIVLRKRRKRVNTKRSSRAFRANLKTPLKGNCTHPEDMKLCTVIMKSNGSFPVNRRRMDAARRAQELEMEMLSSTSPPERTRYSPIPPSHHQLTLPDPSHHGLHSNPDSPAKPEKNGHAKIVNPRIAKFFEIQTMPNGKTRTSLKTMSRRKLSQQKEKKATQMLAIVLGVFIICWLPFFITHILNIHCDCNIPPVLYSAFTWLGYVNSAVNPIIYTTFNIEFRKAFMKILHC
T2 sequence (Q62758 whole entry): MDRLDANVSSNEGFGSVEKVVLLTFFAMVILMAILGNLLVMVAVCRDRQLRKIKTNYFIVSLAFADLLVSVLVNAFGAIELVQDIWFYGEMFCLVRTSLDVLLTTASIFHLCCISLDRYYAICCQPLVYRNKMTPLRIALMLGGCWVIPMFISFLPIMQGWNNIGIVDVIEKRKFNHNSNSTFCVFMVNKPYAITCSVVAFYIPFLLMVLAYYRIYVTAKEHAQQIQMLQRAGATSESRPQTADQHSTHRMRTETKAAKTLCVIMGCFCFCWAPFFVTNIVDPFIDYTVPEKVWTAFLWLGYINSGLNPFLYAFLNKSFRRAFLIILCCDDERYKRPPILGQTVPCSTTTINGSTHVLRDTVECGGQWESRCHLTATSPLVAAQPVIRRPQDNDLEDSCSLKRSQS
T5 sequence (P14842 whole entry): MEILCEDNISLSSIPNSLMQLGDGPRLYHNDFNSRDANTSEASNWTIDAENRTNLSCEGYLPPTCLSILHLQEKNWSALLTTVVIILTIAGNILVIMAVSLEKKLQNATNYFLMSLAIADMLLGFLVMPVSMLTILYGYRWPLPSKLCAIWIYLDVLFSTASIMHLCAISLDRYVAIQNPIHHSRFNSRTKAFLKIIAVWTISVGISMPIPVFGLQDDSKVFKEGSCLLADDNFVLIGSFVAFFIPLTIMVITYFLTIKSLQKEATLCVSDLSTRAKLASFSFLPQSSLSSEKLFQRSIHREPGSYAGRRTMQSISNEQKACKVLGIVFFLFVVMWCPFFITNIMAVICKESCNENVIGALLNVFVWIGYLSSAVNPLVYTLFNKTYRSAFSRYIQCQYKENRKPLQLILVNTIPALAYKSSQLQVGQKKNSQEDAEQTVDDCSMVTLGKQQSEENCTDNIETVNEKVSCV

With `COc1ccccc1CCCCNCCCCN1C(=O)C2CCCN2C1=O` (stereo not shown) [Compound 20, 2-[4-[4-(o-Methoxyphenyl)butylamine]butyl]-1,3-dioxoperhydropyrrolo[1,2-c]imidazol], the Ki on D2 receptors was above 10000 nM; on 5-HT4 receptors it was above 10000 nM; at 5-HT3 receptors it was above 1000 nM; at α1 receptors, above 1000 nM; on 5-HT1A [1], 138 ± 26.3 nM; at 5-HT2A receptors, above 10000 nM. In addition, the inhibition constant Ki on 5-HT7 receptors is above 10000 nM.
For `O=C1C2SCCN2C(=O)N1CCCCNCC1CCc2ccccc2O1` (racemic) [Compound 2, (±)-2-[4-[(Chroman-2-yl)methylamine]butyl]-1,3-dioxoperhydroimidazo[1,5-b]thiazol], the Ki on D2 receptors is above 10000 nM; at 5-HT4 receptors, above 10000 nM; on 5-HT3 receptors, above 10000 nM; on 5-HT1A [1], 19.9 ± 6 nM; on 5-HT2A receptors it was above 1000 nM. The EC50 on 5-human HT1A receptor stood at 18.9 nM. The “% Maximum inhibition” value on 5-human HT1A receptor is on record as 94.5%. The “Potency in hyperpolarization test compared with 8-OH-DPAT” value in experiment [2] is given as “indistinguishable in potency to that of the 5-HT1A, 8-OH-DPAT type agonist”.
Consider `O=C1C2CCCN2C(=O)N1CCCCNCCOc1cccc2ccccc12` (stereo not shown) [Compound 14, 2-[4-[2-(Naphth-1-oxi)ethylamine]butyl]-1,3-dioxoperhydropyrrolo[1,2-c]imidazol], for which the inhibition constant Ki on D2 receptors was above 1000 nM; at 5-HT4 receptors it was above 10000 nM; on 5-HT3 receptors it was above 1000 nM; on α1 receptors it was 30.9 ± 4.9 nM; on 5-HT1A [1], 2.4 ± 0.6 nM; at 5-HT2A receptors, 41.5 ± 7.5 nM. In addition, at 5-HT7 receptors, the Ki came out at 42.6 ± 4.4 nM.
For `O=C1C2CSCN2C(=O)N1CCCCNCC1CCc2ccccc2O1` (racemic) [Compound 3, (±)-2-[4-[(Chroman-2-yl)methylamine]butyl]-1,3-dioxoperhydroimidazo[1,5-c]-thiazol], on 5-human HT1A receptor, the EC50 was 31.5 nM and the “% Maximum inhibition” value was 89.3%. Also, the Ki on 5-HT1A [1] was determined as 13.2 ± 1 nM. Further, on 5-HT1A [3], the “[35S]-GTPγS fixation compared with 8-OH-DPAT” value is recorded as “especially similar to those obtained with the 5-HT1A, 8-OH-DPAT agonist prototype”.
On to `O=C1CSC(=O)N1CCCCNCCc1cccc2ccccc12` [Compound 10, 3-[4-[2-(Naphth-1-yl)ethylamine]butyl]-2,4-dioxothiazolidin], for which the Ki at D2 receptors was above 10000 nM; on 5-HT4 receptors it was above 1000 nM; on 5-HT3 receptors it was above 1000 nM; on α1 receptors, above 1000 nM; at 5-HT1A [1], 15 ± 1 nM; at 5-HT2A receptors, above 1000 nM. In addition, the Ki on 5-HT7 receptors was above 10000 nM.
Take `O=C1CSC(=O)N1CCCCNCCOc1cccc2ccccc12` [Compound 15, 3-[4-[2-(Naphth-1-oxi)ethylamine]butyl]-2,4-dioxothiazolidin]: the Ki at D2 receptors is above 1000 nM; on 5-HT3 receptors it was above 10000 nM; on α1 receptors, 54.7 ± 1.8 nM; on 5-HT1A [1] it was 4.5 ± 0.2 nM; on 5-HT2A receptors, 38.5 ± 7.7 nM; on 5-HT7 receptors it was 19.9 ± 0.8 nM.
For `COc1ccccc1CCCNCCCN1C(=O)C2CCCN2C1=O` (stereo not shown) [Compound 21, 2-[3-[3-(o-Methoxyphenyl)propylamine]propyl]-1,3-dioxoperhydropyrrolo[1,2-c]imidazol], the Ki on D2 receptors is above 10000 nM; on 5-HT4 receptors, above 1000 nM; at 5-HT3 receptors it was above 10000 nM; on α1 receptors, above 1000 nM; on 5-HT1A [1], above 1000 nM; on 5-HT2A receptors, above 10000 nM. Further, at 5-HT7 receptors, the inhibition constant Ki was above 10000 nM.
As to `O=C1C2CCCN2C(=O)N1CCCCNCc1nc2ccccc2[nH]1` (stereo not shown) [Compound 16, 2-[4-[(Benzimidazol-2-yl)methylamine]butyl]-1,3-dioxoperhydropyrrolo[1,2-c]imidazol], the Ki was above 10000 nM at D2 receptors; above 10000 nM on 5-HT4 receptors; above 1000 nM on 5-HT3 receptors; above 1000 nM on α1 receptors; above 10000 nM at 5-HT1A [1]; above 10000 nM at 5-HT2A receptors. Besides, on 5-HT7 receptors, the inhibition constant (Ki) was above 10000 nM.
Turning to `O=C1C2CCCN2C(=O)N1CCCCNCCc1ccc2ccccc2c1` (stereo not shown) [Compound 11, 2-[4-[2-(Naphth-2-yl)ethylamine]butyl]-1,3-dioxoperhydropyrrolo[1,2-c]imidazol], the Ki at 5-HT4 receptors is 594 ± 43.7 nM; at 5-HT3 receptors, above 10000 nM; at α1 receptors it was 99 ± 14 nM; at 5-HT1A [1] it was 43.2 ± 4.5 nM; at 5-HT2A receptors it was 157.3 ± 0.65 nM; at 5-HT7 receptors, 74 ± 7.3 nM.
Consider `O=C1CSC(=O)N1CCCCNCCOc1ccccc1` [Compound 13, 3-[4-[2-(Phenoxy)ethylamine]butyl]-2,4-dioxothiazolidin], for which the Ki is above 10000 nM on D2 receptors; above 1000 nM at 5-HT4 receptors; above 10000 nM at 5-HT3 receptors; 26.9 ± 4.5 nM at α1 receptors; 9.8 ± 0.7 nM on 5-HT1A [1]; above 10000 nM on 5-HT2A receptors. Also, the Ki at 5-HT7 receptors came to 55 ± 0.3 nM.
For `COc1ccccc1CCCNCCCCN1C(=O)C2CCCN2C1=O` (stereo not shown) [Compound 19, 2-[4-[3-(o-Methoxyphenyl)propylamine]butyl]-1,3-dioxoperhydropyrrolo[1,2-c]imidazol], the inhibitory constant (Ki) on D2 receptors was above 10000 nM; at 5-HT4 receptors, above 10000 nM; at 5-HT3 receptors, above 10000 nM; at α1 receptors, above 1000 nM; on 5-HT1A [1] it was 73.9 ± 5 nM; at 5-HT2A receptors, above 1000 nM. Besides, the inhibitory constant (Ki) at 5-HT7 receptors is above 10000 nM.
Turning to `O=C1CSC(=O)N1CCCCNCC1CCc2ccccc2O1` (racemic) [Compound 4, (±)-3-[4-[(Chroman-2-yl)methylamine]butyl]-2,4-dioxothiazolidin], at 5-human HT1A receptor, the EC50 came to 11.6 nM and the “% Maximum inhibition” value worked out at 89.6%. The inhibition constant (Ki) on 5-HT1A [1] was determined as 30.1 ± 0.6 nM.
